{
  "source": "patent US10695434B2",
  "about": "“Preventing central nervous system induced nausea through use of vitamin B12 conjugation” (Syracuse University, priority 2018, dated 2020)",
  "key": {"[1]": {"biological_target": "T1, Human recombinant TCII (Homo sapiens, UniProt P20062)", "T1 sequence (P20062 19-427)": "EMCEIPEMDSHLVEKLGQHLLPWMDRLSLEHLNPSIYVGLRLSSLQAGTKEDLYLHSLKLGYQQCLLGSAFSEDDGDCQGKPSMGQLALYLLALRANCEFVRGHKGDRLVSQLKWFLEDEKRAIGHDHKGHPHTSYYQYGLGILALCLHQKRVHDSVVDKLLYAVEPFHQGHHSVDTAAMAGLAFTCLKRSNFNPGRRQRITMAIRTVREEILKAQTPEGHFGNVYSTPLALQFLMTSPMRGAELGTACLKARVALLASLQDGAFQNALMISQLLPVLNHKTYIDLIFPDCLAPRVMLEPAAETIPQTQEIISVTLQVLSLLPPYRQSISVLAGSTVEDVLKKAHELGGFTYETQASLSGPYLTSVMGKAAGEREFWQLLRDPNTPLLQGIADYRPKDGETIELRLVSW", "assay": "TCII binding, radio chase assay using 57Co-labelled B12", "description": "FIG. 1 is a series of graphs of (A) Synthetic scheme for Cy5-B12, Cy5 alkyne was “clicked” onto a B12-azide conjugate. (B) RP-HPLC of Cy5-B12 showing purity ≥98% and LC-MS showing 1031[M+2H]^+2, 1042[M+Na+2H]^+2, and 1050 [M+K+2H]^+2, consistent with the conjugate. (C) Excitation and emission spectra of Cy5-B12 at 645 and 682 nm, respectively. […] Note that B12-Ex4 agonism at the GLP-1 receptor was previously reported (68 pM).\nOne addition to the characterization was the measure of TCII binding of B12-Ex4 (FIG. 1D), which was conducted at the Department of Clinical Medicine-Clinical Biochemistry, University of Aarhus, Denmark as described. […] Injections were separated by at least 48 h. For most in vivo experiments, injections were administered using a within-subjects, Latin square design. The exception was the conditioned taste avoidance (CTA) study, which used a between-subjects design.\nIn addition, the food intake- and body weight-suppressive effects of GLP-1R agonists have highlighted the utility of these pharmacotherapies for the treatment of obesity."}, "[2]": {"assay": "Oral glucose tolerance test, food intake and nausea (kaolin consumption) in diabetic lean rats", "assay_type": "in vivo", "settings": "Goto-Kakazaki rats; Ex-4 20 ug/Kg, B12-Ex4 equimolar, liraglutide 100 ug/Kg, 60 min pre-glucose", "protocol": "FIG. 8 is a series of graphs showing a standard oral glucose tolerance test performed in Goto-Kakazaki rats, a form of naturally diabetic lean rat, along with food intake and nausea measurements.\nReferring to FIG. 8, Testing of Ex-4 at 20 ug/Kg, B12-Ex4 at equimolar to Ex-4, and liraglutide at 100 ug/Kg were screened for glucoregulation, food intake reduction and nausea (kaolin consumption). All drugs were administered at 60 minutes pre-glucose bolus, food intake and nausea were tracked over 6 hours."}, "[3]": {"assay": "Intraperitoneal glucose tolerance test (IPGTT)", "assay_type": "in vivo, C57BL/6J mice", "settings": "mice", "protocol": "The experimental procedure for IPGTT in mice was similar to that used for OGTT in rats. Briefly, mice (n=13; 8 females, 5 males) were food and water deprived for 4 h before and during the IPGTT. Testing was completed mid-light phase. Blood was collected from the tail tip and analyzed for BG. […] Thirty minutes later (t=0 min), BG was measured and each mouse received an IP injection of glucose (2 g/kg). Subsequent BG readings were taken at 20, 40, 60, and 120 min after glucose injection. After the final BG reading, food and water were returned. Area under the curve (AUC) was calculated from 0-120 min (e.g., beginning at the time of glucose administration) using the trapezoidal method."}, "[4]": {"assay": "Energy balance: chow intake and body weight after SC injection", "assay_type": "in vivo, Sprague Dawley rats", "settings": "rats", "protocol": "Shortly before the onset of the dark phase, rats (n=12) were given subcutaneous (SC) injection of B12-Ex4 (1, 5, or 20 μg/kg) or vehicle (1 ml/kg sterile saline). Chow intake was measured at 1, 3, 6, and 24 h post-injection. Food spillage was accounted for in all intake measurements. Body weight was also measured at 0 and 24 h.\n(§1) Pre-weighed food was returned to the rats after the OGTT, and chow intake was measured for ˜21.5 h (e.g., until 24 h after the SC injections). Spillage was accounted for in food intake measurements. Body weight was recorded at 0 and 24 h. For the OGTT, n=10 rats were tested; food and body weight data were collected from n=9 due to a technical error in food intake measurement."}, "[5]": {"assay": "Oral glucose tolerance test (OGTT)", "assay_type": "in vivo, Sprague Dawley rats", "settings": "rats", "protocol": "Rats (n=12) were deprived of food overnight before testing. On the morning of testing, just after the onset of the […], water was also removed from the cage. A small drop of blood was collected from the tail tip and analyzed for blood glucose (BG) level using a standard glucometer (AccuCheck). Immediately after this baseline BG reading (t=−30 min), each rat received SC injection of B12-Ex4 (5 or 20 μg/kg) or vehicle (1 ml/kg sterile saline); doses of drug were selected based on the results of the feeding study. Thirty minutes later (t=0 min), BG was measured and each rat received an oral gavage of glucose (2 g/kg). Subsequent BG readings were taken at 20, 40, 60, and 120 min after glucose gavage. After the final BG reading, food and water were returned.\nas §1"}, "[6]": {"assay": "Conditioned taste avoidance (CTA), two-bottle test (nausea/malaise)", "assay_type": "in vivo, Sprague Dawley rats", "settings": "rats, IP, B12-Ex4 5 μg/kg, LiCl 0.15M", "protocol": "Rats (n=8-10 per drug) were evaluated for expression of a CTA to a flavor paired with B12-Ex4 (5 μg/kg, IP). […] See Supplemental Methods for more details."}},
  "data": [
    {"molecule": "Cyanocobalamin [cyano-B12]", "values": [
      {"measurement": "Kd", "setting": "[1]", "value": 0.98, "unit": "nM"}
    ]},
    {"molecule": "exendin-4 [Ex4]", "values": [
      {"measurement": "hyperglycemia in OGTT", "setting": "[2]", "value": "does do"},
      {"measurement": "BG prior to IP glucose injection (t=0)", "setting": "[3]; 30 min after IP drug", "value": "reduced BG levels"},
      {"measurement": "blood glucose levels in the IPGTT", "setting": "[3]; IP Ex4 5 μg/kg or equimolar B12-Ex4, IP glucose 2 g/kg", "value": "strongly attenuated the increase in blood glucose levels"},
      {"measurement": "BG at 20 min, Ex4 compared to B12-Ex4", "setting": "[3]; p<0.05", "value": "more potent effect"},
      {"measurement": "blood glucose area under the curve 0-120 min", "setting": "[3]; post-glucose load, vs saline", "value": "hypoglycemic effects"},
      {"measurement": "food intake in the 21.5 h after OGTT", "setting": "[4]; SC 5 or 20 μg/kg, vs vehicle", "value": "ate significantly less"},
      {"measurement": "body weight gain, 24 h", "setting": "[4]; SC, vehicle versus 20 μg/kg p<0.05", "value": "gained less body weight"},
      {"measurement": "blood glucose by drug on its own (t=0, before glucose)", "setting": "[5]; SC 5 or 20 μg/kg, 30 min after injection", "value": "increased BG on its own"},
      {"measurement": "blood glucose levels in the OGTT (overall)", "setting": "[5]; SC 5 or 20 μg/kg, oral glucose 2 g/kg", "value": "pronounced hyperglycemic response"},
      {"measurement": "BG late after glucose gavage", "setting": "[5]; B12-Ex4: both doses at 60 min, higher dose at 120 min, Ex4: 40, 60, 120 min", "value": "remained significantly elevated"}
    ]},
    {"molecule": "[Cl-].[Li+]", "note": "[LiCl, lithium chloride]", "values": [
      {"measurement": "acceptance of the drug-paired flavor (CTA)", "setting": "[6]", "value": "produce avoidance of the drug-paired flavor"}
    ]}
  ]
}
